Experimental data: patent publication US9580390B2, “Indazole compounds as kinase inhibitors and method of treating cancer with same” (University Health Network, priority 2011, dated 2017)
Like-named read-outs stand apart in the source and are kept apart here.

Legend:
Breast cancer cells = test: Cancer cell line growth inhibition (SRB assay); type: cell-based; settings: Homo sapiens; MDA-MB-468; read-out: Cancer Cell Line GI50 Range MDA-MB-468
TICs (Colon 12) = test: Colon tumor-initiating cell growth inhibition (Alamar Blue); type: cell-based; settings: 216 h, 9 days, read-out: Tumor Initiating Cell GI50 Range Colon 12
TICs (Ovarian 2393A) = test: Ovarian tumor-initiating cell growth inhibition (Alamar Blue); type: cell-based; settings: 144 h, 6 days, read-out: Tumor Initiating Cell GI50 Range Ovarain 2393A
[1] = test system: colon cancer cells (HCT116); test: Cancer cell line growth inhibition (SRB assay); type: cell-based; settings: Homo sapiens, HCT-116, read-out: Cancer Cell Line GI50 Range HCT116
human TTK = molecular target: T1, human TTK (Homo sapiens, UniProt P33981); test: TTK inhibition assay (indirect ELISA); type: biochemical
T1 construct: amino terminal GST fusion of full length human TTK; purchased Invitrogen
T1 sequence (P33981 1-857): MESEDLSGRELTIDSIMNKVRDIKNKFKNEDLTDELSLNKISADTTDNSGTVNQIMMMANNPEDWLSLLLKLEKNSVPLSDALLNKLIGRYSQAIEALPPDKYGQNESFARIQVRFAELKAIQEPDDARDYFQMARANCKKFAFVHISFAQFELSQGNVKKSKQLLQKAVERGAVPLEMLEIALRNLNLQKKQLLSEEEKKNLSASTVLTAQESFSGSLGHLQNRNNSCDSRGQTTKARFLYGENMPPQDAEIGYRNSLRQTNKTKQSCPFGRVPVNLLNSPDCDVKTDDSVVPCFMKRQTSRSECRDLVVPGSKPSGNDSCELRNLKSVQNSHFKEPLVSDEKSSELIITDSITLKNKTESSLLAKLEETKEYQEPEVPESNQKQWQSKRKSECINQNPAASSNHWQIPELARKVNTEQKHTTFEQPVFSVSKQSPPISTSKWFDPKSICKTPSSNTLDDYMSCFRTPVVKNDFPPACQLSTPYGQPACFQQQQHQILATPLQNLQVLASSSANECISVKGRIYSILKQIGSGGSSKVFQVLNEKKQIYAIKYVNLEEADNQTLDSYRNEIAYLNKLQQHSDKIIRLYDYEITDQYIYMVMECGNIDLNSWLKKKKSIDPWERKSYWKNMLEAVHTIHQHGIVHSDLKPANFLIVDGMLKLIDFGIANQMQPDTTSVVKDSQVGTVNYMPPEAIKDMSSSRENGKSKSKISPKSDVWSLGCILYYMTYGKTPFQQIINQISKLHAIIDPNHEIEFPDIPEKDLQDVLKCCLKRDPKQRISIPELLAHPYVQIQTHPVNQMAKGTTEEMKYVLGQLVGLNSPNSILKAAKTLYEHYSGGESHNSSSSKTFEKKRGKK

[2] = test system: ovarian cancer cells (PA-1); test: Cancer cell line growth inhibition (SRB assay); type: cell-based; settings: read-out: Cancer Cell Line GI50 Range PA-1
[3] = HCT116 colon cancer cells, SRB assay
[4] = PA-1 ovarian cancer cells, SRB assay

IC50 (human TTK; read-out: TTK IC50 Range) [nM]	GI50 (TICs (Colon 12); colon TICs, Alamar Blue) [nM]	GI50 (TICs (Ovarian 2393A); ovarian TICs, Alamar Blue) [nM]	GI50 [1, 3] [nM]	GI50 [2, 4] [nM]	Structure (SMILES)	GI50 (Breast cancer cells) [nM]	GI50 (TICs (Colon 12); Colon 12 TICs) [nM]	GI50 (TICs (Ovarian 2393A); Ovarian 2393A TICs) [nM]	GI50 [1] [nM]	GI50 ([2]; Homo sapiens, PA-1) [nM]	IC50 (human TTK) [nM]
< 100	–	–	–	–	CN1CCC2(CC1)CC(=O)c1cc(-c3n[nH]c4ccc(C(=O)N[C@H](c5ccccn5)C5CC5)cc34)ccc1O2 [Example A257, (S)-N-(cyclopropyl(pyridin-2-yl)methyl)-3-(1′-methyl-4-oxospiro[chroman-2,4′-piperidin]-6-yl)-1H-indazole-5-carboxamide]	100 to 500	100 to 500	100 to 500	< 100	< 100	–
< 100	–	–	–	–	CC(C)[C@H](NC(=O)c1ccc2[nH]nc(-c3ccc(OC4CCN(C5COC5)CC4)cc3)c2c1)c1ccccc1Cl [Example A332, (S)-N-(1-(2-chlorophenyl)-2-methylpropyl)-3-(4-((1-(oxetan-3-yl)piperidin-4-yl)oxy)phenyl)-1H-indazole-5-carboxamide]	–	< 100	< 100	< 100	< 100	–
< 100	–	–	–	–	CC(C)[C@H](NC(=O)c1ccc2[nH]nc(-c3ccc(N4CCCN(C5COC5)CC4)cc3)c2c1)c1ccccc1Cl [Example A369, (S)-N-(1-(2-chlorophenyl)-2-methylpropyl)-3-(4-(4-(oxelan-3-yl)-1,4-diazepan-l-yl)phenyl)-1H-indazole-5-carboxamide]	–	< 100	< 100	< 100	< 100	–
< 100	> 500	> 500	100 to 500	100 to 500	CN1CCC(Oc2ccc(-c3n[nH]c4ccc(C(=O)NCC5(c6cccnc6)CCCCC5)cc34)cc2)CC1 [Example A482, 3-(4-((1-methylpiperidin-4-yl)oxy)phenyl)-N-((1-(pyridin-3-yl)cyclohexyl)methyl)-1H-indazole-5-carboxamide]	–	–	–	–	–	–
< 100	–	–	–	–	O=C(NCC1(N2CCOCC2)CCCCC1)c1ccc2[nH]nc(-c3ccc(N4CCN(C5COC5)CC4)cc3)c2c1 [Example A500, N-((1-morpholinocyclohexyl)methyl)-3-(4-(4-(oxetan-3-yl)piperazin-1-yl)phenyl)-1H-indazole-5-carboxamide]	–	< 100	< 100	< 100	< 100	–
< 100	100 to 500	100 to 500	< 100	< 100	CN1CC[C@@H](Oc2ccc(-c3n[nH]c4ccc(C(=O)NCC5(N6CCOCC6)CCCCC5)cc34)cc2)[C@@H](F)C1 [Example A455, 3-(4-(((3S,4R)-3-fluoro-1-methylpiperidin-4-yl)oxy)phenyl)-N-((1-morpholinocyclohexyl)methyl)-1H-indazole-5-carboxamide]	–	–	–	–	–	–
< 100	100 to 500	100 to 500	< 100	100 to 500	O=CN1CCC(Oc2ccc(-c3n[nH]c4ccc(C(=O)NCC5(N6CCOCC6)CCCCC5)cc34)cc2)CC1 [Example A504, 3-(4-((1-formylpiperidin-4-yl)oxy)phenyl)-N-((1-morpholinocyclohexyl)methyl)-1H-indazole-5-carboxamide]	–	–	–	–	–	–

More lines, now with the values behind:

Structure (SMILES)	IC50 (human TTK; read-out: TTK IC50 Range) [nM]	GI50 (TICs (Colon 12); colon TICs, Alamar Blue) [nM]	GI50 (TICs (Ovarian 2393A); ovarian TICs, Alamar Blue) [nM]	GI50 [1, 3] [nM]	GI50 [2, 4] [nM]	GI50 (Breast cancer cells) [nM]	GI50 (TICs (Colon 12); Colon 12 TICs) [nM]	GI50 (TICs (Ovarian 2393A); Ovarian 2393A TICs) [nM]	GI50 [1] [nM]	GI50 ([2]; Homo sapiens, PA-1) [nM]	IC50 (human TTK) [nM]
O=C(NCC1(c2ccccc2)CCOCC1)c1ccc2[nH]nc(-c3ccc(N4[C@@H]5CC[C@H]4COC5)cc3)c2c1 [Example A502, 3-(4-((1R,5S)-3-oxa-8-azabicyclo[3.2.1]octan-8-yl)phenyl)-N-((4-phenyltetrahydro-2H-pyran-4-yl)methyl)-1H-indazole-5-carboxamide]	< 100	–	–	–	–	< 100	< 100	< 100	< 100	< 100	–
O=C(NC(c1ccsc1)C1CCC1)c1ccc2[nH]nc(-c3ccc(O[C@H]4C[C@H]5CC[C@@H](C4)N5C4COC4)cc3)c2c1 (stereo partly drawn) [Example A326, N-(cyclobutyl(thiophen-3-yl)methyl)-3-(4-(((1R,3R,5S)-8-(oxetan-3-yl)-8-azabicyclo[3.2.1]octan-3-yl)oxy)phenyl)-1H-indazole-5-carboxamide]	< 100	–	–	–	–	100 to 500	< 100	< 100	100 to 500	100 to 500	–
CC1=CC2(CCN(C)CC2)Oc2ccc(-c3n[nH]c4ccc(C(=O)N[C@H](c5ccccn5)C5CC5)cc34)cc21 [Example A260, (S)-N-(cyclopropyl(pyridin-2-yl)methyl)-3-(1′,4-dimethylspiro[chromene-2,4′-piperidin]-6-yl)-1H-indazole-5-carboxamide]	< 100	–	–	–	–	< 100	100 to 500	< 100	< 100	< 100	–
CC(C)C[C@H](NC(=O)c1ccc2[nH]nc(-c3ccc(N4C5CCC4CC(O)C5)cc3)c2c1)c1ccccn1 (stereo partly drawn) [Example A301, 3-(4-((1R,3S,5S)-3-hydroxy-8-azabicyclo[3.2.1]octan-8-yl)phenyl)-N-((S)-3-methyl-1-(pyridin-2-yl)butyl)-1H-indazole-5-carboxamide]	–	–	–	–	–	–	< 100	< 100	< 100	< 100	< 100
CC(C)C[C@@H](NC(=O)c1ccc2[nH]nc(-c3ccc(N4C5CCC4CC(O)C5)cc3)c2c1)c1ccccn1 (stereo partly drawn) [Example A305, 3-(4-((1R,3R,5S)-3-hydroxy-8-azabicyclo[3.2.1]octan-8-yl)phenyl)-N-((R)-3-methyl-1-(pyridin-2-yl)butyl)-1H-indazole-5-carboxamide]	–	–	–	–	–	–	< 100	< 100	< 100	< 100	< 100
CN1[C@@H]2CC[C@H]1C[C@@H](Oc1ccc(-c3n[nH]c4ccc(C(=O)NC(c5ncccn5)C5CCCC5)cc34)cc1)C2 (stereo partly drawn) [Example A385, N-(cyclopentyl(pyrimidin-2-yl)methyl)-3-(4-(((1R,3R,5S)-8-methyl-8-azabicyclo[3.2.1]octan-3-yl)oxy)phenyl)-1H-indazole-5-carboxamide]	< 100	–	–	–	–	–	100 to 500	< 100	< 100	< 100	–
C[C@@H](O)C(=O)N1CCC(Oc2ccc(-c3n[nH]c4ccc(C(=O)N[C@H](c5ccccc5)C5CC5)cc34)cc2)CC1 [Example A379, N-((S)-cyclopropyl(phenyl)methyl)-3-(4-((1-((R)-2-hydroxypropanoyl)piperidin-4-yl)oxy)phenyl)-1H-indazole-5-carboxamide]	< 100	–	–	–	–	–	< 100	100 to 500	100 to 500	100 to 500	–
O=CN1C2CCC1CC(Oc1ccc(-c3n[nH]c4ccc(C(=O)N[C@H](c5ccccc5)C5CC5)cc34)cc1)C2 (stereo partly drawn) [Example A328, N-((S)-cyclopropyl(phenyl)methyl)-3-(4-(((1R,3R,5S)-8-formyl-8-azabicyclo[3.2.1]octan-3-yl)oxy)phenyl)-1H-indazole-5-carboxamide]	< 100	–	–	–	–	–	< 100	100 to 500	< 100	< 100	–
O=C(N[C@H](c1ccccn1)C1CC1)c1ccc2[nH]nc(-c3ccc(OC4CC5CCC(C4)N5C4COC4)cc3)c2c1 (stereo partly drawn) [Example A320, N-((S)-cyclopropyl(pyridin-2-yl)methyl)-3-(4-(((1R,3R,5S)-8-(oxetan-3-yl)-8-azabicyclo[3.2.1]octan-3-yl)oxy)phenyl)-1H-indazole-5-carboxamide]	< 100	–	–	–	–	–	< 100	100 to 500	< 100	< 100	–
O=CN1C2CCC1CC(Oc1ccc(-c3n[nH]c4ccc(C(=O)N[C@H](c5ccccc5Cl)C5CC5)cc34)cc1)C2 (stereo partly drawn) [Example A350, N-((S)-(2-chlorophenyl)(cyclopropyl)methyl)-3-(4-(((1R,3R,5S)-8-formyl-8-azabicyclo[3.2.1]octan-3-yl)oxy)phenyl)-1H-indazole-5-carboxamide]	< 100	–	–	–	–	–	< 100	< 100	< 100	< 100	–
